From ChEMBL document CHEMBL1149994, “Total synthesis of novel conduritol related compounds capable of modulating insulin release” (1994) come the findings set out here.

The species named for assay [1] is Rattus norvegicus. Description: Tested for change in release of insulin from pancreatic islets of Sprague-Dawley rats at a concentration of 2.8 mM glucose. It is filed as functional.
The species named for assay [2] is Rattus norvegicus. Description: Tested for change in release of insulin from pancreatic islets of Sprague-Dawley rats at a concentration of 16.7 mM glucose. It is filed as functional.

On to `CC(C)[C@@]12CC[C@@](C)(C3C1[C@H](O)[C@@H](O)[C@@H](O)[C@@H]3O)[C@@H](O)[C@H]2O` (stereo partly specified), for which the Change in the assay filed under Rattus norvegicus [1] and in the assay listed under Rattus norvegicus [2] was -30% throughout.

`O[C@@H]1[C@H](O)[C@@H](O)C=C[C@H]1O`: the Change was 45% in the assay filed under Rattus norvegicus [1] and -30% in the assay listed under Rattus norvegicus [2].

Turning to `O[C@@H]1[C@H](O)[C@@H](O)C2C([C@H](O)CC[C@@H]2O)[C@H]1O` (stereo partly specified), the values for the Change in the assay filed under Rattus norvegicus [1] and in the assay listed under Rattus norvegicus [2] were -45% and -35%, respectively.

As for `CC(=O)O[C@@H]1[C@H](OC(C)=O)[C@@H](OC(C)=O)C2C(C3CCC2[C@H](O)[C@@H]3O)[C@H]1OC(C)=O` (stereo partly specified), the figures for the Change in the assay listed under Rattus norvegicus [1] and in the assay filed under Rattus norvegicus [2] were -60% and -23%, respectively.

On to `CC(C)[C@@]12CC[C@@]3(C)C4C1[C@H](O[C@H]2[C@@H]3O)C(O)[C@@H](O)[C@@H]4O` (single isomer, unassigned), for which the Change in the assay listed under Rattus norvegicus [1] is -60%; in the assay filed under Rattus norvegicus [2] it was -45%.

For `O[C@H]1[C@H](O)[C@@H](O)C=C[C@@H]1O`, the Change in the assay listed under Rattus norvegicus [1] is 41%; in the assay listed under Rattus norvegicus [2] it was 50%.

As to `O[C@@H]1[C@H](O)[C@H](O)C=C[C@H]1O`, the Change in the assay listed under Rattus norvegicus [1] is 27%; in the assay filed under Rattus norvegicus [2], -20%.

Regarding `O[C@@H]1[C@H](O)[C@@H](O)C2C(C3CCC2[C@H](O)[C@@H]3O)[C@H]1O` (stereo partly specified), the Change was -18% in the assay filed under Rattus norvegicus [1] and 44% in the assay listed under Rattus norvegicus [2].

Take `OC1[C@H]2O[C@@H]3C4CCC(C(C42)[C@@H](O)[C@@H]1O)[C@H]3O` (single isomer, unassigned): the results for the Change in the assay listed under Rattus norvegicus [1] and in the assay filed under Rattus norvegicus [2] were 0% and -70%, respectively.

With `O[C@H]1[C@H](O)[C@@H](O)C=C[C@H]1O`, the Change in the assay filed under Rattus norvegicus [1] is on record as 9%; in the assay listed under Rattus norvegicus [2], -3%.

Take `C[C@@]1(O)CC2C(C[C@@]1(C)O)[C@H](O)[C@@H](O)[C@@H](O)[C@@H]2O` (stereo partly specified): the Change is recorded as -60% in the assay listed under Rattus norvegicus [1] and 0% in the assay filed under Rattus norvegicus [2].

For `O[C@@H]1[C@H](O)[C@H](O)C=C[C@@H]1O`, the Change in the assay filed under Rattus norvegicus [1] and in the assay filed under Rattus norvegicus [2] was 0% in each case.

On to `O[C@H]1[C@H](O)[C@H](O)C=C[C@H]1O`, for which the Change is 12% in the assay filed under Rattus norvegicus [1] and 15% in the assay listed under Rattus norvegicus [2].
